Assay results published in ChEMBL document CHEMBL1201862, “PubChem BioAssay data set” (2004).
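Dose response: 5 concentrations. Exposure: 48 h. Format: 96-well plates. Endpoint: linear interpolation; highest concentration if not reached. Here, GI50 denotes the concentration required for 50% inhibition of growth.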 Active and inactive are the calls of the source. Rule as the data show it: active = GI50 up to about 1.1 µM and inactive = higher. Where a SMILES comes first, the peptide text is derived from it. [ ]: non-standard residue; d: D form. The star is where a group is joined. NMeAc5c = CNC1(C(=O)O)CCCC1; Boc = CC(C)(C)OC(=O)*; OBn = c1ccc(CO*)cc1

Tests used:
Experiment in all cases: NCI-60 cell line screen, 48 h
SK-MEL-28 = test system: SK-MEL-28
Hs-578T = test system: Hs-578T
EKVX = test system: EKVX
KM12 = test system: KM12
NCI-H23 = test system: NCI-H23
NCI-H460 = test system: NCI-H460
SK-MEL-5 = test system: SK-MEL-5
HOP-62 = test system: HOP-62
OVCAR-3 = test system: OVCAR-3
SF-295 = test system: SF-295
786-0 = test system: 786-0
UACC-257 = test system: UACC-257
MDA-MB-231 = test system: MDA-MB-231
MDA-MB-435 = test system: MDA-MB-435
T47D = test system: T47D
NCI-H226 = test system: NCI-H226
MOLT-4 = test system: MOLT-4
IGROV-1 = test system: IGROV-1
HCT-116 = test system: HCT-116
A498 = test system: A498

SMILES	GI50 (SK-MEL-28)	GI50 (Hs-578T)	GI50 (EKVX)	GI50 (KM12)	GI50 (NCI-H23)	GI50 (NCI-H460)	GI50 (SK-MEL-5)	GI50 (HOP-62)	GI50 (OVCAR-3)	GI50 (SF-295)	GI50 (786-0)	GI50 (UACC-257)	GI50 (MDA-MB-231)	GI50 (MDA-MB-435)	GI50 (T47D)	GI50 (NCI-H226)	GI50 (MOLT-4)	GI50 (IGROV-1)	GI50 (HCT-116)	GI50 (A498)
C[n+]1c2ccccc2c(C(=O)Nc2ccc(S(=O)(=O)Nc3ncccn3)cc2)c2ccccc21	> 100 µM (inactive)	> 100 µM (inactive)	80.7 µM (inactive)	> 100 µM (inactive)	> 100 µM (inactive)	> 100 µM (inactive)	58.9 µM (inactive)	> 100 µM (inactive)	> 100 µM (inactive)	> 100 µM (inactive)	> 100 µM (inactive)	> 100 µM (inactive)	71.9 µM (inactive)	42.3 µM (inactive)	> 100 µM (inactive)	37.4 µM (inactive)	25.8 µM (inactive)	> 100 µM (inactive)	72.6 µM (inactive)	
CN(/N=C/c1cccs1)c1ccc(Cl)cc1[N+](=O)[O-]	78.5 µM (inactive)	25.4 µM (inactive)	32.7 µM (inactive)	11.4 µM (inactive)	35.3 µM (inactive)	23.3 µM (inactive)	36.9 µM (inactive)	40.9 µM (inactive)	39.8 µM (inactive)	37.7 µM (inactive)	59.6 µM (inactive)	35.6 µM (inactive)	14.2 µM (inactive)	5.57 µM (inactive)	41.6 µM (inactive)	19.8 µM (inactive)	17.1 µM (inactive)	> 100 µM (inactive)	26.2 µM (inactive)	
CN(C(=O)C(Cc1ccccc1)NC(=O)OC(C)(C)C)C1(C(=O)NC(Cc2ccccc2)C(=O)OCc2ccccc2)CCCC1 (stereo not drawn) (Boc-Phe-[NMeAc5c]-Phe-OBn; configuration not given here)	58.1 µM (inactive)	41.3 µM (inactive)	59.6 µM (inactive)	36.6 µM (inactive)	43.7 µM (inactive)	23.6 µM (inactive)	59.6 µM (inactive)	38.5 µM (inactive)	31.8 µM (inactive)	42.6 µM (inactive)	40.9 µM (inactive)	57.3 µM (inactive)	23.4 µM (inactive)	37.3 µM (inactive)	75.5 µM (inactive)	40.6 µM (inactive)	26.9 µM (inactive)	53.6 µM (inactive)	30.6 µM (inactive)	
CCOc1nc2c(N3CCCC3)nc(N3CCNCC3)nc2nc1NCc1ccccc1	1.79 µM (inactive)	1.72 µM (inactive)	2.1 µM (inactive)	1.34 µM (inactive)	1.51 µM (inactive)	1.41 µM (inactive)	1.41 µM (inactive)	1.05 µM (active)	0.887 µM (active)	1.76 µM (inactive)	1.39 µM (inactive)	1.74 µM (inactive)	1.45 µM (inactive)	1.34 µM (inactive)	1.46 µM (inactive)	1.65 µM (inactive)	1.09 µM (active)	1.19 µM (inactive)	0.923 µM (active)	
N#CC1=C2SCCN2C(=O)C(C#N)C12CCCCC2 (configuration not stated)	> 100 µM (inactive)		> 100 µM (inactive)	> 100 µM (inactive)	> 100 µM (inactive)	> 100 µM (inactive)	> 100 µM (inactive)	> 100 µM (inactive)	> 100 µM (inactive)	> 100 µM (inactive)	> 100 µM (inactive)	> 100 µM (inactive)	> 100 µM (inactive)	> 100 µM (inactive)	> 100 µM (inactive)	> 100 µM (inactive)	> 100 µM (inactive)	> 100 µM (inactive)	> 100 µM (inactive)	> 100 µM (inactive)
O=c1[nH]cnc2cccc(Cl)c12	> 100 µM (inactive)	> 100 µM (inactive)	> 100 µM (inactive)	> 100 µM (inactive)	> 100 µM (inactive)	> 100 µM (inactive)	> 100 µM (inactive)	> 100 µM (inactive)	> 100 µM (inactive)	> 100 µM (inactive)	> 100 µM (inactive)	> 100 µM (inactive)	> 100 µM (inactive)		> 100 µM (inactive)	> 100 µM (inactive)	> 100 µM (inactive)	> 100 µM (inactive)	> 100 µM (inactive)	> 100 µM (inactive)
C/C1=C\[C@H](C)C[C@H](C)OC(=O)C[C@H](c2ccc(O)cc2)NC(=O)[C@H](Cc2ccc(O)c(Br)c2)N(C)C(=O)[C@H](C)NC(=O)[C@@H](C)C1	> 25 µM (inactive)	> 25 µM (inactive)	> 25 µM (inactive)	> 25 µM (inactive)	> 25 µM (inactive)		> 25 µM (inactive)	> 25 µM (inactive)	> 25 µM (inactive)	> 25 µM (inactive)	> 25 µM (inactive)		> 25 µM (inactive)	> 25 µM (inactive)		> 25 µM (inactive)	> 25 µM (inactive)	> 25 µM (inactive)	> 25 µM (inactive)	> 25 µM (inactive)
N=c1nc(N)nc(N)n1-c1ccc(S(N)(=O)=O)cc1	> 100 µM (inactive)		> 100 µM (inactive)	> 100 µM (inactive)	> 100 µM (inactive)	> 100 µM (inactive)	> 100 µM (inactive)	> 100 µM (inactive)	> 100 µM (inactive)	> 100 µM (inactive)	> 100 µM (inactive)	> 100 µM (inactive)	> 100 µM (inactive)	> 100 µM (inactive)	> 100 µM (inactive)	> 100 µM (inactive)	> 100 µM (inactive)	> 100 µM (inactive)	> 100 µM (inactive)	> 100 µM (inactive)
COc1ccc2c(c1)NC1(CCN(CCCC(=O)c3ccc(F)cc3)CC1)N=N2	20 µM (inactive)		32.2 µM (inactive)	20.1 µM (inactive)	25.8 µM (inactive)	26.1 µM (inactive)	12.6 µM (inactive)	24.7 µM (inactive)	23.3 µM (inactive)	19.6 µM (inactive)	19.3 µM (inactive)	17.6 µM (inactive)	22.5 µM (inactive)	15.8 µM (inactive)	22.2 µM (inactive)	22 µM (inactive)	15.3 µM (inactive)	21 µM (inactive)	17.1 µM (inactive)	28.4 µM (inactive)
COc1cc(Oc2nc3cc(F)c(F)cc3nc2-c2ccccc2)cc(OC)c1OC	> 100 µM (inactive)	38.7 µM (inactive)	97.7 µM (inactive)	35 µM (inactive)	> 100 µM (inactive)	63.8 µM (inactive)	28.1 µM (inactive)	82 µM (inactive)	> 100 µM (inactive)	46.3 µM (inactive)	30.5 µM (inactive)	> 100 µM (inactive)		61.9 µM (inactive)	> 100 µM (inactive)	45.5 µM (inactive)	> 100 µM (inactive)	> 100 µM (inactive)	> 100 µM (inactive)	> 100 µM (inactive)
CCCCn1c(O)nc2c(N)ncnc21	> 100 µM (inactive)	> 100 µM (inactive)	92.9 µM (inactive)		> 100 µM (inactive)	> 100 µM (inactive)	> 100 µM (inactive)	> 100 µM (inactive)	> 100 µM (inactive)	> 100 µM (inactive)	> 100 µM (inactive)	> 100 µM (inactive)	> 100 µM (inactive)	> 100 µM (inactive)		> 100 µM (inactive)		> 100 µM (inactive)	> 100 µM (inactive)	> 100 µM (inactive)
Nc1nc(-c2ccccc2)c(Cl)c(-c2cc(Cl)ccc2O)n1	91.2 µM (inactive)		28.1 µM (inactive)	16.7 µM (inactive)	15.8 µM (inactive)	17 µM (inactive)	14.2 µM (inactive)	14.9 µM (inactive)	16.1 µM (inactive)	48.4 µM (inactive)	24.4 µM (inactive)	> 100 µM (inactive)	48.5 µM (inactive)	> 100 µM (inactive)	3.15 µM (inactive)	24.7 µM (inactive)	> 100 µM (inactive)	19.4 µM (inactive)	13.4 µM (inactive)	34.6 µM (inactive)
COc1cc(OC)c2c(=O)c3cccc(C)c3n(C)c2c1	50.1 µM (inactive)	58.7 µM (inactive)	> 100 µM (inactive)	80 µM (inactive)	> 100 µM (inactive)	94 µM (inactive)	22.4 µM (inactive)	> 100 µM (inactive)	74.8 µM (inactive)	57.7 µM (inactive)	> 100 µM (inactive)	43.5 µM (inactive)	> 100 µM (inactive)	50.7 µM (inactive)		> 100 µM (inactive)	52.4 µM (inactive)	> 100 µM (inactive)	48.3 µM (inactive)	> 100 µM (inactive)
CC(C)Oc1cccc(N2C(NCc3c[nH]c4ccccc34)=Nc3ccncc3S2(=O)=O)c1	45.8 µM (inactive)	16.2 µM (inactive)	23.1 µM (inactive)	33.3 µM (inactive)	22.8 µM (inactive)	18.5 µM (inactive)	13.9 µM (inactive)	30.9 µM (inactive)	12.9 µM (inactive)	18.7 µM (inactive)	30.3 µM (inactive)	31.3 µM (inactive)		32.4 µM (inactive)	5.47 µM (inactive)	45.4 µM (inactive)	16.7 µM (inactive)	20.4 µM (inactive)	27.7 µM (inactive)	28.8 µM (inactive)
